Measurements as given in patent publication US6746686B2, “Coated implants” (Biocompatibles UK Limited, priority 2001, dated 2004).

How the values were obtained:
Format in all cases: physicochemical
[1] = Uptake of fluorescence labelled oligonucleotide on polymer 2.2 coated stent; settings: polymer 2.2 coated stents; 30 minutes in 5 mg/ml solution in physiological saline
Description: Stents coated with polymer 2.2 were loaded with a 15-mer c-myc antisense oligonucleotide AACGTTGAGGGGCAT (sequence ID 2) labelled with a fluorescence label by immersing them for 30 minutes in a 5 mg/ml solution of the DNA in physiological saline.
The total loading was determined by placing 3 of the stents each into 3 ml PBS and sonicating for 30 minutes. The fluorescent label was quantified.

[2] = Loading of polymer films with FITC-Dextran; settings: FITC-Dextran mwt 4400; polymer 1.1 and polymer 2.1 coatings
Description: Steel strips (1 cm×1.5 cm) were cleaned in dichloromethane for 10 minutes using the ultra-sonics bath. 200 ul of a 50 mg/ml polymer solution was evenly coated onto the steel strips. For each polymer sample seven steel strips were coated. Coated steel strips were then dried overnight in a oven at 70° C. to cure the polymer films.
Six of the coated steel strips were placed polymer side down into a well containing a 1 mg/ml drug solution. One control sample was not loaded with drug. The steel strips were submerged for 1 hour. The steel strips were then removed from the well and the excess drug removed by dabbing the surface very gently with tissue. The steel strips were then allowed to dry for a further half hour at room temperature. Each sample was then dipped quickly in clean PBS solution to remove excess drug from the coating. (3 secs dip). Each steel strip was then placed in 3 ml of PBS solution contained in vials. Each vial was then sonicated for 20 mins at a bath temperature of 35° C. in order to extract the drug from the polymer coating. Each solution was then measured using fluorescence spectroscopy to determine the amount of drug uptake
In order to study the effect of drug molecular weight on the amount loaded into a polymer coating, a compound with a variety of molecular weights which could be detected by fluorescence had to be identified. […]

[3] = Abciximab loading and elution in vitro
Description: In this study ^125I-labelled abciximab was loaded onto stents coated with either polymer 2.2 or as a comparison a bare stent (no polymer) by immersing the stents in a solution of 2 mg/ml drug in phosphate buffered saline containing 0.001% polysorbate 80 to assist dissolution for 30 minutes at room temperature. The stents were removed and wick dried. The stents were then placed into channels each forming part of a separate circuit of recirculating ([…]) phosphate buffered saline containing 1% albumin at 37° C. The level of 1251 label remaining on the stent was determined by measuring the level of label in the circulating PBS over a period of 24 or 48 hours and reported in percentage terms. The total loading of drug on stent was also determined and found to be about 5 μg per stent for the stents coated with polymer 2.2.

[4] = Heparin loading and release, polymer 2.1 coated stents
Description: This study investigated the ability of polymer 2.1 coated stents to take up and release a sample of unfractionated heparin with an average molecular weight of approx. 10000D.
Loading was carried out by immersion of the coated stents into a solution of heparin in PBS. A range of conditions were used to investigate the loading onto the stents.
Table 6 Summary of conditions and results of heparin loading and release Notes—*the time where released heparin reaches maximum; **the maximum weight of heparin released during a releasing experiment (see maximum point of the release profile, FIG. 2)

[5] = Radiolabelled (35S) heparin loading and elution, polymer 2.2 coated stents
Description: Radiolabelled (^35S) heparin (MW 8-10 kDa) was loaded onto stents coated with polymer 2.2, from a 2 mg/ml aqueous solution. To determine the total loading the stents were placed into liquid scintillant and coated for radioactivity. The mean uptake of heparin was 11 μg per stent. The stents were each placed into a volume of PBS to determine the rate of elution of heparin over a 4 hour period.

[6] = polymer 2.1 stent, loading 0.2 mg/ml, 30 min, released into 1 volume PBS
[7] = polymer 2.1 stent, loading 2.0 mg/ml, 30 min, released into 0.5 volume PBS
[8] = polymer 2.1 stent, loading 10 mg/ml, 5 min, released into 0.5 volume PBS

AACGTTGAGGGGCAT [15-mer c-myc antisense oligonucleotide]
Total loading [1]: about 20 μg per stent

Fluorescein Iso Thiocyanate Dextran [FITC-Dextran]
Uptake into polymer coatings [2]: could not be detected

abciximab: antibody (MW about 50 kDa) to glycoprotein IIb/IIIa
Release time from stent ([3]; cationic polymer (2.2) vs bare stent, PBS with 1% albumin at 37° C.): released over a more extended time
Total loading of drug on stent ([3]; stents coated with polymer 2.2, 2 mg/ml, 30 minutes, room temperature): about 5 μg per stent

heparin
Release from the stents ([4]; polymer 2.1 coated stents): released from the stents over a prolonged period of time
Total loading ([4]; polymer 2.1 stent, loading 0.2 mg/ml, 30 min): 3.4 µg
Tmax (time where released heparin reaches maximum) [4, 6]: 15 min
Wmax (maximum weight of heparin released) [4, 6]: 0.73 µg
Tmax (time where released heparin reaches maximum) [4, 7]: 20 min
Wmax (maximum weight of heparin released) [4, 7]: 2.07 µg
Tmax (time where released heparin reaches maximum) [4, 8]: 10 min
Wmax (maximum weight of heparin released) [4, 8]: 13.93 µg
Mean uptake of heparin ([5]; 2 mg/ml aqueous solution): 11 μg per stent
Release pattern ([5]; elution into PBS over 4 hours): released initially as a burst
Time to 100% release of heparin ([5]; elution into PBS, extrapolation of 4 hour release data): about 24 hours
